From PMC5218480 (PLoS ONE, 2017)

Tested on: MV-4-11 cells
Test: Gene expression microarray analysis (Affymetrix PrimeView) and GSEA
Assay type: cell-based, human
Design: RFU PODN (11730768_x_at) / Fold change /veh PODN (11730768_x_at) / RFU LINC00158 (11744669_a_at) / Fold change /veh LINC00158 (11744669_a_at) / RFU DUSP10 (11751237_a_at) / Fold change /veh DUSP10 (11751237_a_at) / RFU ID3 (11757404_x_at) / Fold change /veh ID3 (11757404_x_at) / RFU PLEKHG5 (11737974_s_at) / Fold change /veh PLEKHG5 (11737974_s_at) / RFU LRRC4B (11730491_at) / Fold change /veh LRRC4B (11730491_at) / RFU GIMAP4 (11747438_a_at) / Fold change /veh GIMAP4 (11747438_a_at) / RFU KRT8 (11758183_x_at) / Fold change /veh KRT8 (11758183_x_at) / RFU CNN1 (11734310_a_at) / Fold change /veh CNN1 (11734310_a_at) / RFU VPS37D (11726825_at) / Fold change /veh VPS37D (11726825_at) / RFU C10orf10 (11716522_x_at) / Fold change /veh C10orf10 (11716522_x_at) / RFU KIR2DL2 /// KIR2DL4 /// KIR2DL5A /// KIR2DL5B /// KIR2DS1 /// KIR2DS2 /// KIR2DS3 /// KIR2DS4 /// KIR3DL3 /// KIR3DL3 /// KIR3DS1 (11738374_at) / Fold change /veh KIR2DL2 /// KIR2DL4 /// KIR2DL5A /// KIR2DL5B /// KIR2DS1 /// KIR2DS2 /// KIR2DS3 /// KIR2DS4 /// KIR3DL3 /// KIR3DL3 /// KIR3DS1 (11738374_at) / RFU C1QL1 (11718748_at) / Fold change /veh C1QL1 (11718748_at) / RFU TMPRSS4 (11747572_a_at) / Fold change /veh TMPRSS4 (11747572_a_at) / RFU HAMP (11756126_x_at) / Fold change /veh HAMP (11756126_x_at) / RFU RNFT2 (11725882_a_at) / Fold change /veh RNFT2 (11725882_a_at) / RFU NR4A2 (11747474_a_at) / Fold change /veh NR4A2 (11747474_a_at) / RFU ABCC12 (11746883_a_at) / Fold change /veh ABCC12 (11746883_a_at) / RFU TMEM136 (11760407_x_at) / Fold change /veh TMEM136 (11760407_x_at) / RFU CLDN22 /// WWC2 (11732394_at) / Fold change /veh CLDN22 /// WWC2 (11732394_at) / RFU HLA-DPB1 (11760878_x_at) / Fold change /veh HLA-DPB1 (11760878_x_at) / RFU SPINT1 (11716480_a_at) / Fold change /veh SPINT1 (11716480_a_at) / RFU GAP43 (11754022_s_at) / Fold change /veh GAP43 (11754022_s_at) / RFU A4GNT (11735810_at) / Fold change /veh A4GNT (11735810_at) / RFU PRB3 (11715151_x_at) / Fold change /veh PRB3 (11715151_x_at) / RFU TUBB4B (11761932_at) / Fold change /veh TUBB4B (11761932_at) / RFU CAPN14 (11732068_a_at) / Fold change /veh CAPN14 (11732068_a_at) / RFU TMCC2 (11721928_a_at) / Fold change /veh TMCC2 (11721928_a_at) / RFU IRGQ (11745062_a_at) / Fold change /veh IRGQ (11745062_a_at) / RFU FAM174B (11720279_a_at) / Fold change /veh FAM174B (11720279_a_at) / RFU TMPRSS4 (11748680_a_at) / Fold change /veh TMPRSS4 (11748680_a_at) / RFU FAM212B (11763350_a_at) / Fold change /veh FAM212B (11763350_a_at) / RFU PLEKHG5 (11743358_a_at) / Fold change /veh PLEKHG5 (11743358_a_at) / RFU ZSCAN30 (11745921_a_at) / Fold change /veh ZSCAN30 (11745921_a_at) / RFU CMKLR1 (11741424_a_at) / Fold change /veh CMKLR1 (11741424_a_at) / RFU LOC101060620 /// MAPK8IP1 (11723275_at) / Fold change /veh LOC101060620 /// MAPK8IP1 (11723275_at) / RFU SPTSSB (11747773_x_at) / Fold change /veh SPTSSB (11747773_x_at) / RFU PRSS12 (11739890_at) / Fold change /veh PRSS12 (11739890_at) / RFU BIN1 (11741810_x_at) / Fold change /veh BIN1 (11741810_x_at) / RFU WNT11 (11732464_a_at) / Fold change /veh WNT11 (11732464_a_at) / RFU C10orf10 (11716521_a_at) / Fold change /veh C10orf10 (11716521_a_at) / RFU C5orf56 (11738089_at) / Fold change /veh C5orf56 (11738089_at) / RFU CYB561 (11721691_x_at) / Fold change /veh CYB561 (11721691_x_at) / RFU ANKRD19P (11752326_a_at) / Fold change /veh ANKRD19P (11752326_a_at) / RFU OR2T12 /// OR2T33 /// OR2T8 (11738714_s_at) / Fold change /veh OR2T12 /// OR2T33 /// OR2T8 (11738714_s_at) / RFU VCAN (11748164_a_at) / Fold change /veh VCAN (11748164_a_at) / RFU JSRP1 (11732532_at) / Fold change /veh JSRP1 (11732532_at) / RFU KRTAP10-11 (11738290_x_at) / Fold change /veh KRTAP10-11 (11738290_x_at) / RFU MYO3A (11730013_a_at) / Fold change /veh MYO3A (11730013_a_at) / RFU EBF3 (11725865_a_at) / Fold change /veh EBF3 (11725865_a_at) / RFU CAMK2N1 (11719241_x_at) / Fold change /veh CAMK2N1 (11719241_x_at) / RFU C5orf56 (11738088_a_at) / Fold change /veh C5orf56 (11738088_a_at) / RFU OLFML3 (11715873_a_at) / Fold change /veh OLFML3 (11715873_a_at) / RFU LOC100653217 /// NTM (11731650_a_at) / Fold change /veh LOC100653217 /// NTM (11731650_a_at) / RFU MAPK11 (11762145_a_at) / Fold change /veh MAPK11 (11762145_a_at) / RFU FIZ1 (11724087_x_at) / Fold change /veh FIZ1 (11724087_x_at) / RFU OASL (11726364_x_at) / Fold change /veh OASL (11726364_x_at) / RFU SOX15 (11748057_x_at) / Fold change /veh SOX15 (11748057_x_at) / RFU CD79A (11719716_a_at) / Fold change /veh CD79A (11719716_a_at) / RFU HIST1H1D (11736915_at) / Fold change /veh HIST1H1D (11736915_at) / RFU CASKIN2 (11723855_a_at) / Fold change /veh CASKIN2 (11723855_a_at) / RFU LOC730098 (11760151_x_at) / Fold change /veh LOC730098 (11760151_x_at) / RFU OR4N2 (11742367_at) / Fold change /veh OR4N2 (11742367_at) / RFU PRRT2 (11749266_a_at) / Fold change /veh PRRT2 (11749266_a_at) / RFU SNX32 (11753110_a_at) / Fold change /veh SNX32 (11753110_a_at) / RFU CDHR5 (11726645_a_at) / Fold change /veh CDHR5 (11726645_a_at) / RFU RCAN1 (11760418_a_at) / Fold change /veh RCAN1 (11760418_a_at) / RFU FAM167A (11723789_a_at) / Fold change /veh FAM167A (11723789_a_at) / RFU FAM26E (11764081_at) / Fold change /veh FAM26E (11764081_at) / RFU ISYNA1 (11749810_s_at) / Fold change /veh ISYNA1 (11749810_s_at) / RFU ACY1 (11761880_at) / Fold change /veh ACY1 (11761880_at) / RFU 11764098_at / Fold change /veh 11764098_at / RFU SAMD14 (11745864_x_at) / Fold change /veh SAMD14 (11745864_x_at) / RFU NPB (11741838_a_at) / Fold change /veh NPB (11741838_a_at) / RFU TMPRSS6 (11731388_a_at) / Fold change /veh TMPRSS6 (11731388_a_at) / RFU KRTAP10-2 (11738614_at) / Fold change /veh KRTAP10-2 (11738614_at) / RFU ARHGAP8 /// PRR5-ARHGAP8 (11727945_x_at) / Fold change /veh ARHGAP8 /// PRR5-ARHGAP8 (11727945_x_at) / RFU KRTAP5-7 /// NADSYN1 (11734609_at) / Fold change /veh KRTAP5-7 /// NADSYN1 (11734609_at) / RFU RASL12 (11751679_a_at) / Fold change /veh RASL12 (11751679_a_at) / RFU CDKN2B (11736163_a_at) / Fold change /veh CDKN2B (11736163_a_at) / RFU PRF1 (11729649_at) / Fold change /veh PRF1 (11729649_at) / RFU, ZNF638 /// ZNF638-IT1 / Fold change vs veh, ZNF638 /// ZNF638-IT1 / RFU, PANK3 / Fold change vs veh, PANK3 / RFU, SH3YL1 / Fold change vs veh, SH3YL1 / RFU, ZEB2 / Fold change vs veh, ZEB2 / RFU, NRIP1 / Fold change vs veh, NRIP1 / RFU, PTTG1IP / Fold change vs veh, PTTG1IP / RFU, CAPN2 / Fold change vs veh, CAPN2 / RFU, MED14 / Fold change vs veh, MED14 / RFU, SNORA58 / Fold change vs veh, SNORA58 / RFU, C1orf63 / Fold change vs veh, C1orf63 / RFU, LRRFIP1 / Fold change vs veh, LRRFIP1 / RFU, NDUFAF7 / Fold change vs veh, NDUFAF7 / RFU, SLC12A2 / Fold change vs veh, SLC12A2 / RFU, IBTK / Fold change vs veh, IBTK / RFU, ESF1 / Fold change vs veh, ESF1 / Fold change vs veh, TMEM50B / RFU, TAOK1 / Fold change vs veh, TAOK1 / RFU, ACBD3 / Fold change vs veh, ACBD3 / RFU, TMA16 / Fold change vs veh, TMA16 / RFU, RWDD3 / Fold change vs veh, RWDD3 / RFU, BCAT1 / Fold change vs veh, BCAT1 / RFU, EDEM3 / Fold change vs veh, EDEM3 / RFU, TMEM33 / Fold change vs veh, TMEM33 / RFU, WDR75 / Fold change vs veh, WDR75 / RFU, AHCTF1 / Fold change vs veh, AHCTF1 / RFU, TFRC / Fold change vs veh, TFRC / RFU, ZDHHC17 / Fold change vs veh, ZDHHC17 / RFU, NOM1 / Fold change vs veh, NOM1 / RFU, ARL8B / Fold change vs veh, ARL8B / RFU, ZBTB11 / Fold change vs veh, ZBTB11 / RFU, TAMM41 / Fold change vs veh, TAMM41 / RFU, KIAA1704 /// LOC100996395 / Fold change vs veh, KIAA1704 /// LOC100996395 / RFU, ING1 / Fold change vs veh, ING1 / RFU, TRMT61B / Fold change vs veh, TRMT61B / RFU, FUBP3 / Fold change vs veh, FUBP3 / RFU, TP53 / Fold change vs veh, TP53 / RFU, TNKS2 / Fold change vs veh, TNKS2 / RFU, ZFP14 / Fold change vs veh, ZFP14 / RFU, ACTR2 / Fold change vs veh, ACTR2 / RFU, PPP3R1 / Fold change vs veh, PPP3R1 / RFU, PIK3R1 / Fold change vs veh, PIK3R1 / RFU, HNRNPA1 / Fold change vs veh, HNRNPA1 / RFU, RNF170 / Fold change vs veh, RNF170 / RFU, ZNF28 / Fold change vs veh, ZNF28 / RFU, RNGTT / Fold change vs veh, RNGTT / RFU, OGT / Fold change vs veh, OGT / RFU, BRD1 / Fold change vs veh, BRD1 / RFU, MARS / Fold change vs veh, MARS / RFU, ZNF655 / Fold change vs veh, ZNF655 / RFU, FAHD1 / Fold change vs veh, FAHD1 / RFU, BDP1 / Fold change vs veh, BDP1 / RFU, LRRCC1 / Fold change vs veh, LRRCC1 / RFU, ARID1A / Fold change vs veh, ARID1A / RFU, ZNF146 / Fold change vs veh, ZNF146 / RFU, ZNF330 / Fold change vs veh, ZNF330 / RFU, GPN3 / Fold change vs veh, GPN3 / RFU, C9orf123 / Fold change vs veh, C9orf123 / RFU, N4BP2L2 / Fold change vs veh, N4BP2L2 / RFU, ARFIP1 / Fold change vs veh, ARFIP1 / RFU, FAM179B / Fold change vs veh, FAM179B / RFU, BCL10 / Fold change vs veh, BCL10 / RFU, UHRF1BP1L / Fold change vs veh, UHRF1BP1L / RFU, BET1 / Fold change vs veh, BET1 / RFU, CNOT2 / Fold change vs veh, CNOT2 / RFU, ZNF268 / Fold change vs veh, ZNF268 / Fold change vs veh, ZNF507 / RFU, DGCR2 / Fold change vs veh, DGCR2 / RFU, WDSUB1 / Fold change vs veh, WDSUB1 / Fold change vs veh, HSP90B1 /// MIR3652 / RFU, ADSS / Fold change vs veh, ADSS / RFU, GK / Fold change vs veh, GK / RFU, ZNF148 / Fold change vs veh, ZNF148 / RFU, TAF9 / Fold change vs veh, TAF9 / RFU, SLC1A5 / Fold change vs veh, SLC1A5 / RFU, SLMO2 / Fold change vs veh, SLMO2 / RFU, ABCC4 / Fold change vs veh, ABCC4 / RFU, LOC101060439 /// RAP1B / Fold change vs veh, LOC101060439 /// RAP1B / RFU, RFX7 / Fold change vs veh, RFX7 / RFU, GTPBP10 / Fold change vs veh, GTPBP10 / RFU, CNEP1R1 / Fold change vs veh, CNEP1R1 / RFU, BIVM-ERCC5 /// ERCC5 / Fold change vs veh, BIVM-ERCC5 /// ERCC5 / RFU, ILF3 / Fold change vs veh, ILF3 / RFU 11762660_at / Fold change /veh 11762660_at / RFU VCAN (11757783_s_at) / Fold change /veh VCAN (11757783_s_at) / RFU DDX43 (11728927_at) / Fold change /veh DDX43 (11728927_at) / RFU KRT8 (11758188_x_at) / Fold change /veh KRT8 (11758188_x_at) / RFU NKD1 (11759106_at) / Fold change /veh NKD1 (11759106_at) / RFU SRD5A1 (11742802_a_at) / Fold change /veh SRD5A1 (11742802_a_at) / RFU TPSAB1 /// TPSB2 (11721975_s_at) / Fold change /veh TPSAB1 /// TPSB2 (11721975_s_at) / RFU GSTM3 (11746129_a_at) / Fold change /veh GSTM3 (11746129_a_at) / RFU IL23R (11737362_x_at) / Fold change /veh IL23R (11737362_x_at) / RFU TMEM51 (11727254_a_at) / Fold change /veh TMEM51 (11727254_a_at) / RFU PIWIL2 (11732686_x_at) / Fold change /veh PIWIL2 (11732686_x_at) / RFU ORM1 (11744905_x_at) / Fold change /veh ORM1 (11744905_x_at) / RFU CCDC152 (11743942_at) / Fold change /veh CCDC152 (11743942_at) / RFU ECM1 (11717891_a_at) / Fold change /veh ECM1 (11717891_a_at) / RFU IL23R (11748794_a_at) / Fold change /veh IL23R (11748794_a_at) / RFU TNFAIP8L3 (11732012_x_at) / Fold change /veh TNFAIP8L3 (11732012_x_at) / RFU MBOAT4 (11741988_at) / Fold change /veh MBOAT4 (11741988_at) / RFU 11764193_at / Fold change /veh 11764193_at / RFU TMEM53 (11763286_at) / Fold change /veh TMEM53 (11763286_at) / RFU MAGEB2 (11727129_at) / Fold change /veh MAGEB2 (11727129_at) / RFU TMEM200A (11744735_a_at) / Fold change /veh TMEM200A (11744735_a_at) / RFU CCDC152 (11751479_a_at) / Fold change /veh CCDC152 (11751479_a_at) / RFU FAM211A (11726209_a_at) / Fold change /veh FAM211A (11726209_a_at) / RFU RGS16 (11746705_a_at) / Fold change /veh RGS16 (11746705_a_at) / RFU VCAN (11755009_s_at) / Fold change /veh VCAN (11755009_s_at) / RFU RHOB (11743442_s_at) / Fold change /veh RHOB (11743442_s_at) / RFU RGS16 (11720943_a_at) / Fold change /veh RGS16 (11720943_a_at) / RFU RGS16 (11720944_at) / Fold change /veh RGS16 (11720944_at) / RFU, VPS4B / Fold change vs veh, VPS4B / RFU, CREB1 / Fold change vs veh, CREB1 / RFU, DNAJC13 / Fold change vs veh, DNAJC13 / RFU, GNAQ / Fold change vs veh, GNAQ / RFU, CDK5R1 / Fold change vs veh, CDK5R1 / RFU, ZRANB3 / Fold change vs veh, ZRANB3 / RFU, CUL4A / Fold change vs veh, CUL4A / RFU, CCNY / Fold change vs veh, CCNY / RFU, UFL1 / Fold change vs veh, UFL1 / RFU, COG3 / Fold change vs veh, COG3 / RFU, DIAPH2 / Fold change vs veh, DIAPH2 / RFU, SKA2 / Fold change vs veh, SKA2 / RFU, AFF3 / Fold change vs veh, AFF3 / RFU, LMF1 / Fold change vs veh, LMF1 / RFU, IPO11 / Fold change vs veh, IPO11 / RFU, DFFB / Fold change vs veh, DFFB / RFU, FOXP1 / Fold change vs veh, FOXP1 / RFU, CARD8 / Fold change vs veh, CARD8 / RFU, STRN3 / Fold change vs veh, STRN3 / RFU, ADK / Fold change vs veh, ADK / RFU, RASSF2 / Fold change vs veh, RASSF2 / RFU, WIPF1 / Fold change vs veh, WIPF1 / RFU, LARP1B / Fold change vs veh, LARP1B / RFU, RASA1 / Fold change vs veh, RASA1 / RFU, RB1 / Fold change vs veh, RB1 / RFU, PPFIA1 / Fold change vs veh, PPFIA1 / RFU, MAT2A / Fold change vs veh, MAT2A / RFU, CCT5 / Fold change vs veh, CCT5 / RFU, WDR92 / Fold change vs veh, WDR92 / RFU, CUX1 / Fold change vs veh, CUX1 / RFU, TTC7A / Fold change vs veh, TTC7A / RFU, TMEM135 / Fold change vs veh, TMEM135 / RFU, DEPTOR / Fold change vs veh, DEPTOR / RFU, CPM / Fold change vs veh, CPM / RFU, DNAJB6 / Fold change vs veh, DNAJB6 / RFU, CACNA2D3 / Fold change vs veh, CACNA2D3 / RFU, DTX4 / Fold change vs veh, DTX4 / RFU, TFCP2 / Fold change vs veh, TFCP2 / RFU, GMCL1 /// GMCL1P1 / Fold change vs veh, GMCL1 /// GMCL1P1 / RFU, AEBP2 / Fold change vs veh, AEBP2 / RFU, SNHG1 /// SNORD22 /// SNORD25 /// SNORD26 /// SNORD27 /// SNORD28 /// SNORD29 /// SNORD31 / Fold change vs veh, SNHG1 /// SNORD22 /// SNORD25 /// SNORD26 /// SNORD27 /// SNORD28 /// SNORD29 /// SNORD31 / Fold change (Aza/veh), C12orf56 (ProbeSet 11735607_a_at) / Fold change (ACY-1035/veh), C12orf56 (ProbeSet 11735607_a_at) / Fold change (Aza/veh), FGFR1OP (ProbeSet 11751329_s_at) / Fold change (ACY-1035/veh), FGFR1OP (ProbeSet 11751329_s_at) / Fold change (Aza/veh), VPS36 (ProbeSet 11739960_a_at) / Fold change (ACY-1035/veh), VPS36 (ProbeSet 11739960_a_at) / RFU SYPL1 (11715823_x_at) / Fold change /veh SYPL1 (11715823_x_at) / RFU IGFBP7 (11715501_s_at) / Fold change /veh IGFBP7 (11715501_s_at) / RFU REEP3 (11722064_at) / Fold change /veh REEP3 (11722064_at) / RFU IGLL1 (11728026_x_at) / Fold change /veh IGLL1 (11728026_x_at): dose or concentration left out as unconfirmed
Conditions: MV-4-11 cells, 48 hours

In the case of `Nc1ccc(-c2cccs2)cc1NC(=O)c1ccc2c(c1)cc(C1CC1)n2CCN1CCOCC1` [ACY-1035], the “RFU OLFML3 (11715873_a_at)” value is reported as 13.14 RFU.
